Test results from ChEMBL document CHEMBL1828590 (J Med Chem, 2011).
pIC50: −log10 of the molar value.

Columns and labels:
[1] = Half life in human liver microsomes; type: ADME, Microsome
MV4-11 [2] = assay: Antitumor activity against human MV4-11 cells xenografted in nude BALB/c mouse assessed as tumor growth inhibition at 50 mg/kg, po qd for 21 days measured on day 21; type: functional; conditions: MV4-11, 504 h, read-out: TGI
[3] = Apparent oral clearance in nude BALB/c mouse at 10 mg/kg, iv; type: ADME, organism-based; set-up: dose 10 mg/kg; conditions: in vivo
[4] = Cmax in Wistar rat at 10 mg/kg, po; type: ADME, organism-based; set-up: dose 10 mg/kg, route oral; conditions: in vivo
Mus musculus [5] = assay: Toxicity in nude BALB/c mouse xenografted with human A2780 cells assessed as maximum body weight loss at 50 mg/kg, po QD for 21 days measured on day 13; type: organism-based; set-up: dose 50 mg/kg, route oral; conditions: in vivo, 504 h
Mus musculus [6] = assay: Toxicity in nude BALB/c mouse xenografted with human MV4-11 cells assessed as mortality at 25 mg/kg, po QD for 21 days measured on day 21; type: organism-based; set-up: dose 25 mg/kg, route oral; conditions: in vivo, 504 h
[7] = Volume of distribution at steady state in Wistar rat at 2 mg/kg, iv; type: ADME, organism-based; set-up: dose 2 mg/kg, route intravenous; conditions: in vivo, read-out: Vdss
Mus musculus [8] = assay: Toxicity in nude BALB/c mouse xenografted with human HCT116 cells assessed as body weight loss at 100 mg/kg, po QD for 21 days measured on day 20; type: organism-based, HCT-116; set-up: dose 100 mg/kg, route oral; conditions: in vivo, 504 h
[9] = AUC (0 to infinity) in nude BALB/c mouse at 10 mg/kg, iv; type: ADME, organism-based; set-up: time infinity, dose 10 mg/kg, route intravenous; conditions: plasma
Mus musculus [10] = assay: Toxicity in nude BALB/c mouse xenografted with human A2780 cells assessed as mortality at 100 mg/kg, po QD for 21 days measured on day 9; type: organism-based; set-up: dose 100 mg/kg, route oral; conditions: in vivo, 504 h
Mus musculus [11] = assay: Toxicity in nude BALB/c mouse xenografted with human HCT116 cells assessed as mouse survival at 200 mg/kg, po QD for 21 days measured on day 22; type: organism-based, HCT-116; set-up: dose 200 mg/kg, route oral; conditions: in vivo, 504 h
[12] = Half life in dog liver microsomes; type: ADME, Canis lupus familiaris, Microsome
[13] = Plasma protein binding in dog at 1000 ng/mL; type: ADME, cell-free, Canis lupus familiaris; conditions: read-out: PPB (converted)
Mus musculus [14] = assay: Toxicity in nude BALB/c mouse xenografted with human HCT116 cells assessed as mouse survival at 100 mg/kg, po QD for 21 days measured on day 22; type: organism-based, HCT-116; set-up: dose 100 mg/kg, route oral; conditions: in vivo, 504 h
PC-3 [15] = assay: Antitumor activity against human PC3 cells xenografted in nude BALB/c mouse assessed as tumor growth inhibition at 50 mg/kg, po qd for 21 days measured on day 22; type: functional; conditions: read-out: TGI
[16] = Apparent permeability from apical to basolateral side of human Caco2 cells; type: ADME, cell-based; conditions: Caco-2
[17] = Time required for attaining concentration above IC50 of HDAC1 in tumor of nude BALB/c mouse xenografted with HCT116 cells at 100 mg/kg, po administered as single dose; type: ADME, organism-based, Neoplasm, HCT-116; set-up: dose 100 mg/kg, route oral; conditions: in vivo
[18] = Cmax in nude BALB/c mouse at 50 mg/kg, po; type: ADME, organism-based; set-up: dose 50 mg/kg, route oral; conditions: in vivo
Ramos = assay: Antiproliferative activity against human Ramos cells; type: functional, cell-based
HCT-116 = assay: Antitumor activity against human HCT116 cells xenografted in nude BALB/c mouse assessed as tumor growth inhibition at 100 mg/kg, po qd for 21 days measured on day 15 measured on day 15; type: functional; conditions: read-out: TGI
Mus musculus [19] = assay: Toxicity in nude BALB/c mouse xenografted with human MV4-11 cells assessed as mortality at 50 mg/kg, po QD for 21 days measured on day 21; type: organism-based; set-up: dose 50 mg/kg, route oral; conditions: in vivo, 504 h
[20] = AUC (0 to infinity) in Beagle dog at 2 mg/kg, iv; type: ADME, organism-based, Canis lupus familiaris; set-up: time infinity, dose 2 mg/kg, route intravenous; conditions: plasma
[21] = Apparent oral clearance in Wistar rat at 2 mg/kg, iv; type: ADME, organism-based; set-up: dose 2 mg/kg; conditions: in vivo
[22] = AUC (0 to infinity) in Beagle dog at 10 mg/kg, po; type: ADME, organism-based, Canis lupus familiaris; set-up: time infinity, dose 10 mg/kg, route oral; conditions: plasma
Mus musculus [23] = assay: Toxicity in nude BALB/c mouse xenografted with human HCT116 cells assessed as mouse survival at 50 mg/kg, po QD for 21 days measured on day 22; type: organism-based, HCT-116; set-up: dose 50 mg/kg, route oral; conditions: in vivo, 504 h
[24] = Terminal half life in Beagle dog at 10 mg/kg, po; type: ADME, organism-based, Canis lupus familiaris; set-up: dose 10 mg/kg, route oral; conditions: in vivo, read-out: beta t1/2 (converted)
Mus musculus [25] = assay: Toxicity in nude BALB/c mouse xenografted with human HCT116 cells assessed as body weight loss at 50 mg/kg, po QD for 21 days measured on day 17; type: organism-based, HCT-116; set-up: dose 50 mg/kg, route oral; conditions: in vivo, 504 h
[26] = Cmax in Beagle dog at 10 mg/kg, po; type: ADME, organism-based, Canis lupus familiaris; set-up: dose 10 mg/kg, route oral; conditions: in vivo
Mus musculus [27] = assay: Toxicity in nude BALB/c mouse xenografted with human Ramos cells assessed as mortality at 50 mg/kg, po QD for 21 days measured on day 15; type: organism-based; set-up: dose 50 mg/kg, route oral; conditions: in vivo, 504 h
MV4-11 [28] = assay: Antiproliferative activity against human MV4-11 cells; type: functional, cell-based
[29] = Plasma protein binding in human at 1000 ng/mL; type: ADME, cell-free; conditions: read-out: PPB (converted)
[30] = Solubility of the compound in water at pH 2.2; type: physicochemical
Mus musculus [31] = assay: Toxicity in nude BALB/c mouse xenografted with human A2780 cells assessed as mortality at 50 mg/kg, po QD for 21 days measured on day 9; type: organism-based; set-up: dose 50 mg/kg, route oral; conditions: in vivo, 504 h
[32] = AUC (0 to infinity) in Wistar rat at 2 mg/kg, iv; type: ADME, organism-based; set-up: time infinity, dose 2 mg/kg, route intravenous; conditions: plasma
[33] = Volume of distribution at steady state in Beagle dog at 2 mg/kg, iv; type: ADME, organism-based, Canis lupus familiaris; set-up: dose 2 mg/kg, route intravenous; conditions: in vivo, read-out: Vdss
Mus musculus [34] = assay: Toxicity in nude BALB/c mouse xenografted with human A2780 cells assessed as maximum body weight loss at 100 mg/kg, po QD for 21 days measured on day 20; type: organism-based; set-up: dose 100 mg/kg, route oral; conditions: in vivo, 504 h
PC-3 [35] = assay: Antiproliferative activity against human PC3 cells; type: functional, cell-based
[36] = Terminal half life in Wistar rat at 10 mg/kg, po; type: ADME, organism-based; set-up: dose 10 mg/kg, route oral; conditions: in vivo, read-out: beta t1/2 (converted)
[37] = Kinetic solubility of the compound at pH 7 with […] DMSO; type: physicochemical; conditions: buffer, read-out: Kinetic_solubility
[38] = Tmax in Beagle dog at 10 mg/kg, po; type: ADME, organism-based, Canis lupus familiaris; set-up: dose 10 mg/kg, route oral; conditions: in vivo
Mus musculus [39] = assay: Toxicity in nude BALB/c mouse xenografted with human HCT116 cells assessed as body weight loss at 200 mg/kg, po QD for 21 days measured on day 6; type: organism-based, HCT-116; set-up: dose 200 mg/kg, route oral; conditions: in vivo, 504 h
[40] = Plasma protein binding in rat at 1000 ng/mL; type: ADME, cell-free; conditions: read-out: PPB (converted)
[41] = Apparent oral clearance in Beagle dog at 10 mg/kg, po; type: ADME, organism-based, Canis lupus familiaris; set-up: dose 10 mg/kg, route oral; conditions: in vivo
Mus musculus [42] = assay: Toxicity in nude BALB/c mouse xenografted with human Ramos cells assessed as maximum body weight loss at 50 mg/kg, po QD for 21 days measured on day 12; type: organism-based; set-up: dose 50 mg/kg, route oral; conditions: in vivo, 504 h
[43] = Terminal half life in Wistar rat at 2 mg/kg, iv; type: ADME, organism-based; set-up: dose 2 mg/kg, route intravenous; conditions: in vivo, read-out: beta t1/2 (converted)
[44] = Tmax in Wistar rat at 10 mg/kg, po; type: ADME, organism-based; set-up: dose 10 mg/kg, route oral; conditions: in vivo
[45] = Volume of distribution at steady state in nude BALB/c mouse at 10 mg/kg, iv; type: ADME, organism-based; set-up: dose 10 mg/kg, route intravenous; conditions: in vivo, read-out: Vdss
[46] = AUC (0 to infinity) in Wistar rat at 10 mg/kg, po; type: ADME, organism-based; set-up: time infinity, dose 10 mg/kg, route oral; conditions: plasma
[47] = Apparent permeability from basolateral to apical side of human Caco2 cells; type: ADME, cell-based; conditions: Caco-2
A2780 = assay: Antitumor activity against human A2780 cells xenografted in nude BALB/c mouse assessed as tumor growth inhibition at 50 mg/kg, po qd for 21 days measured on day 9; type: functional; conditions: read-out: TGI
Mus musculus [48] = assay: Toxicity in nude BALB/c mouse xenografted with human MV4-11 cells assessed as maximum body weight loss at 50 mg/kg, po QD for 21 days measured on day 19; type: organism-based; set-up: dose 50 mg/kg, route oral; conditions: in vivo, 504 h

CCCCc1nc2cc(/C=C/C(=O)NO)ccc2n1CCN(CC)CC.Cl.Cl
half-life [1]: > 60 min
inhibition in vivo at 50 mg/kg (MV4-11 [2]): 114%
CL/F [3]: 153 mL/min/kg
Cmax [4]: 0.139 µM
Activity (Mus musculus [5]): 8.9%
Activity (Mus musculus [6]): Non-toxic
Vd [7]: 1.66 L/kg
Activity (Mus musculus [8]): 19.9%
AUC(0-inf) [9]: 2.52 µM·h
Activity (Mus musculus [10]): Non-toxic
Activity (Mus musculus [11]): Toxic
half-life [12]: > 60 min
fraction unbound at 1000 ng/mL [13]: 0.165
Activity (Mus musculus [14]): Non-toxic
inhibition in vivo at 50 mg/kg (PC-3 [15]): 66%
Papp A→B [16]: 7.04 ×10⁻⁶ cm/s
Time [17]: 16 h
Cmax [18]: 6.1 µM
pIC50 (Ramos): 6.85
inhibition in vivo at 100 mg/kg (HCT-116): 97%
Activity (Mus musculus [19]): Non-toxic
AUC(0-inf) [20]: 3.22 µM·h
CL/F [21]: 74.2 mL/min/kg
AUC(0-inf) [22]: 10.5 µM·h
Activity (Mus musculus [23]): Non-toxic
half-life [24]: 247 min
Activity (Mus musculus [25]): 6.4%
Cmax [26]: 3.56 µM
Activity (Mus musculus [27]): Non-toxic
pIC50 (MV4-11 [28]): 7.00
fraction unbound at 1000 ng/mL [29]: 0.082
solubility [30]: > 100 mg/mL
Activity (Mus musculus [31]): Non-toxic
AUC(0-inf) [32]: 1.15 µM·h
Vd [33]: 4.24 L/kg
Activity (Mus musculus [34]): 20%
pIC50 (PC-3 [35]): 6.47
half-life [36]: 121 min
solubility kinetic [37]: > 200 µM
Tmax [38]: 45 min
Activity (Mus musculus [39]): 25.5%
fraction unbound at 1000 ng/mL [40]: 0.07
CL/F [41]: 38.2 mL/min/kg
Activity (Mus musculus [42]): 3.7%
half-life [43]: 53.4 min
Tmax [44]: 14.4 min
Vd [45]: 3.46 L/kg
AUC(0-inf) [46]: 0.181 µM·h
Papp B→A [47]: 19.4 ×10⁻⁶ cm/s
inhibition in vivo at 50 mg/kg (A2780): 44%
Activity (Mus musculus [48]): 7.1%
